Laboratory results: US9314498B2, “Bacteriocin derived from Lactobacillus rhamnosus” (priority 2011, dated 2016)

Assays:
[1] = tested on: Candida albicans MYA274 strain; assay: Boiling experiment: antimicrobial activity (ATP) against Candida albicans MYA274; type: cell-based; details: concluded from supernatant boiled at 100° C. for 20 minutes; peptides not directly used
Description: In Example 9, antimicrobial activity against the Candida albicans MYA274 strain was investigated. The Candida albicans MYA274 strain was precultured in Sabouraud dextrose broth (Difco) at 37° C. for 24 hours, and then washed twice with MQ water, followed by being prepared such that OD600 is 0.3 (1.0×10^7 cells/ml).
In Example 9, the bacteriocin Kog1 or Kog2, or the Lactobacillus rhamnosus KO1 strain or KO3 strain, was not directly used. Instead, a lactic acid bacterium medium containing the Lactobacillus rhamnosus KO3 strain, 8020 yogurt (liquid type), was used in the experiment More specifically, the 8020 yogurt (liquid type) was prepared by adding the Lactobacillus rhamnosus KO3 strain at a concentration of 1% and YF-L811 starter at a concentration of 1% to the 15% skim milk+3% glucose medium, and then performing culture at 35° C. for 2 days.
Such 8020 yogurt (liquid type) was centrifuged to obtain a supernatant from which the lactic acid bacterium was removed (hereinafter referred to as Supernatant B). In the experiment, Supernatant B and a sample prepared by boiling Supernatant B at 100° C. for 20 minutes (hereinafter referred to as Supernatant Boil) were used. […]
In order to study changes in the antimicrobial activity by boiling, the following 3 kinds of samples were placed in a 24-well plate, and the value of ATP (pmol/L) after 24 hours of incubation at 37° C. was measured. […]

[2] = tested on: Candida albicans GDH18 strain; assay: Antimicrobial activity (CFU count, percentage of living cells) against Candida albicans GDH18; type: cell-based; details: 37° C., 90 minutes, 1 mM phosphate buffer
Excerpt: As the Candida, cariogenic bacteria and periodontal disease bacteria, the Candida albicans GDH18 strain, Streptococcus sobrinus B-13 strain, Streptococcus mutans NCTC10449 strain, Streptococcus mutans Ingbritt strain, Porphyromonas gingivalis Hudoi001 strain and Aggregatibacter actinomycetemcomitans Hudoe001 strain were used. The test strains were provided from Faculty of Dentistry, Hiroshima University, Japan, and Hiroshima University Dental Hospital.
The Candida albicans GDH18 strain was precultured using SD medium (Difco) at 37° C. for 24 hours under aerobic conditions. The Streptococcus sobrinus B-13 strain, Streptococcus mutans NCTC10449 strain and Streptococcus mutans Ingbritt strain were precultured using TSB medium (Difco) supplemented with 5% yeast extract (Difco) at 37° C. for 24 hours under aerobic conditions. The Porphyromonas gingivalis Hudoi001 strain and Aggregatibacter actinomycetemcomitans Hudoe001 strain were precultured using BHI medium (Difco) supplemented with hemin (5 mg/L) and vitamin K3 (1 mg/L) at 37° C. for 96 hours under anaerobic conditions with Anaero Pack System (Mitsubishi Gas Chemical Company, Inc.).
After the culture, the cells of the Candida, cariogenic bacteria and periodontal disease bacteria were collected by centrifugation at 1000×g, and washed twice with 1 mM phosphate buffer (pH 6.8). The cells were then suspended such that the final concentration was 1×10^8 cfu/ml or 1×10^7 cells/m. For suspension of the Streptococcus strains, ultrasonic treatment was also carried out.
Evaluation of the antimicrobial activity was carried out by the method by Edgerton and others (1998) with some modifications. With 20 mL of 1 mM phosphate buffer containing 0 to 25 μM Kog1 or Kog2 synthesized in Example 1, 20 μl of the suspension of the Candida albicans GDH18 strain cultured and prepared by the method described in the above Preparation Example was mixed, and the resulting mixture was incubated at 37° C. for 90 minutes with shaking. As a control, 20 ml of 1 mM phosphate buffer alone was used. The reaction was stopped by addition of 360 ml of YNB medium (Difco), and the number of colonies formed (colony forming units; CFUs) was counted together with the number of colonies in the control, to determine the percentage of living bacterial cells. That is, the equation of: (CFUs of suspension containing Kog1 or Kog2/CFU ml^−1 of control suspension)×100 was used to calculate the percentage.

[3] = tested on: Aggregatibacter actinomycetemcomitans Hudoe001 strain; assay: Antimicrobial activity against Aggregatibacter actinomycetemcomitans Hudoe001; type: cell-based; details: tested 0 to 50 μM
[4] = tested on: Porphyromonas gingivalis LPS (P.g-LPS) on RAW264.7 macrophage-like cells, ccl2; assay: LPS inactivation: ccl2 secretion of RAW264.7 cells (ELISA); type: cell-based, mouse
Description: (§1) As a medium, RPMI 1640 medium supplemented with 10% FBS (Fetal Bovine Serum) (Biological industries, Haemek, Israel), 1% antibiotic and 1% L-glutamine was used. In each well of a 24-well plate, 400 μl of the medium was placed, and 100,000 cells/well of mouse-derived RAW264.7 macrophage-like cells were inoculated thereto.
(§2) The bacteriocin Kog1 or Kog2, which was the same as in Example 1, was incubated in an Eppendorf tube under each of the following 4 conditions together with Porphyromonas gingivalis LPS (manufactured by InvivoGen) (hereinafter referred to as P.g-LPS) and the same medium as described above, at 37° C. under a gas phase of 5% CO2 for 2 hours: (1) 100 ng/ml P.g-LPS positive control; (2) 100 ng/ml P.g-LPS+5 μM Kog1 or Kog2; (3) 100 ng/ml P.g-LPS+10 μM Kog1 or Kog2; (4) 100 ng/ml P.g-LPS+20 μM Kog1 or Kog2.
(§3) The above-described medium placed in each well of the 24-well plate was removed using a pipetteman, and the medium in the Eppendorf tube for each of the 4 conditions described above was placed in the plate, followed by culturing the cells in the well plate at 37° C. under a gas phase of 5% CO2 for 12 hours. Thereafter, the culture supernatant was collected, and the amount of a chemokine ccl2 or the amount of a cytokine TNF-α secreted into the medium was quantified by the ELISA method by measuring the absorbance at 450 nm using a microplate reader. Since both ccl2 and TNF-α are involved in formation of inflammation, analysis of the relationship between the endotoxin LPS and the bacteriocins Kog1 and Kog2 is possible.

[5] = tested on: Porphyromonas gingivalis LPS (P.g-LPS) on RAW264.7 macrophage-like cells, TNF-α; assay: LPS inactivation: TNF-α secretion of RAW264.7 cells (ELISA); type: cell-based
Description: as §1, §2, §3

[6] = tested on: Streptococcus mutans Ingbritt strain; assay: Antimicrobial activity against Streptococcus mutans Ingbritt; type: cell-based; details: 0 to 100 μM, FIG. 5
[7] = 100 ng/ml P.g-LPS + Kog2 above a certain level, as amount added increases
[8] = 100 ng/ml P.g-LPS + small amount of Kog2 (5 μM)

## Kog2: peptide having the amino acid sequence shown in SEQ ID NO: 2, bacteriocin of Lactobacillus rhamnosus, synthesized by the tea-bag method (MTKVRSSRLRPLTLRLLSAPARAQFLTIACRAILRYDLINS; listed as Lactobacillus rhamnosus)
[1]
  heat resistance (antimicrobial activity after heating): still maintain antimicrobial activity after heating
[2]
  peptide concentration at which 100% of the strain was killed: 0.39 µM
[3]
  peptide concentration at which 100% of the strain was killed: 1.56 µM
[4]; [7]
  amount of the chemokine ccl2 secreted: decreases
[4]; [8]
  amount of the chemokine ccl2 secreted: increases
[5]; [7]
  amount of the cytokine TNF-α secreted: decreases
[5]; [8]
  amount of the cytokine TNF-α secreted: increases
[6]
  antimicrobial activity compared to the other antimicrobial peptides (hBD2, lysozyme): capable of killing a larger amount of Streptococcus mutans even at relatively low peptide concentration
